# ChEMBL document CHEMBL3621093, “Design, synthesis and evaluation of thiohydantoin derivatives as potent topoisomerase I (Top1) inhibitors with anticancer activity” (Eur J Med Chem, 2015)
# Activity calls are given as the source filed them. No cut-off for these calls is given here.
# Columns and labels:
# DNA topoisomerase 1 = target: T1, DNA topoisomerase 1 (Homo sapiens, UniProt P11387); experiment: Inhibition of wild type recombinant human Top1 expressed in baculovirus infected insect Sf9 cells assessed as decrease in supercoiled pBS(SK+) DNA isomer relaxation preincubated for 5 mins followed by pBS(SK+) DNA addition by agarose gel electrophoresis
# T1 sequence (P11387 whole entry): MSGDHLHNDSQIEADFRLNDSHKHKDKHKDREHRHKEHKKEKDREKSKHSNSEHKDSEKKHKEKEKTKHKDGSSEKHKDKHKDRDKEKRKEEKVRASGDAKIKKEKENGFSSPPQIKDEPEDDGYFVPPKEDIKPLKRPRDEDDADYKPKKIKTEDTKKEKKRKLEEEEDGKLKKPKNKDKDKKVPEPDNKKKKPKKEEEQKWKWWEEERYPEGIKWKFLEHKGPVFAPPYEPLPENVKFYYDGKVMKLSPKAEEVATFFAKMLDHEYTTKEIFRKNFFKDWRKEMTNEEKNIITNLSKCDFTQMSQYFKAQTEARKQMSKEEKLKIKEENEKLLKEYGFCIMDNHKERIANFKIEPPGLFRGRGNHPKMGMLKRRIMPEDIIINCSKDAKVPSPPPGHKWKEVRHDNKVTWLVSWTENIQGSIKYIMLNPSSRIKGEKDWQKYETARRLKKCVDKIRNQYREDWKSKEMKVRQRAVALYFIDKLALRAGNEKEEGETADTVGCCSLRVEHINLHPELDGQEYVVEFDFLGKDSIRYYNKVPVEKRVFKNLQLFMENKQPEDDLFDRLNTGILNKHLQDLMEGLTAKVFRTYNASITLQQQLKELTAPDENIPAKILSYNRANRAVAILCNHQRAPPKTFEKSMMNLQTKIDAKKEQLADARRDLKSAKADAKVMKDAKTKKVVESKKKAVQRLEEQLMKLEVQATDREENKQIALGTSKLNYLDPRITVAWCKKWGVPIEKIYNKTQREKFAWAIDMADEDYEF
# [1] = Inhibition of Leishmania donovani Top1 (large/ small subunits) expressed in Escherichia coli BL21 (DE3) pLysS cells assessed as decrease in supercoiled pBS(SK+) DNA isomer relaxation preincubated for 5 mins followed by pBS(SK+) DNA addition by agarose gel electrophoresis
# MCF7 = experiment: Cytotoxicity against human MCF7 cells assessed as inhibition of cell viability after 72 hrs by MTT assay; format: functional, cell-based; conditions: MCF7, 72 h
# [2] = Toxicity in HEK293 cells assessed as inhibition of cell viability after 72 hrs by MTT assay; format: cell-based; conditions: human
# [3] = target: T2, DNA topoisomerase 1 (Homo sapiens) (UniProt P11387); experiment: Inhibition of human Top1 in human MCF7 cells assessed as decrease in supercoiled pBS(SK+) DNA isomer relaxation at 5 to 200 uM incubated simultaneously with enzyme and pBS(SK+) DNA for 30 mins by agarose gel electrophoresis; format: cell-based
# T2 sequence (whole entry): T1 sequence (P11387 whole entry)
# [4] = target: T2, DNA topoisomerase 1 (Homo sapiens); experiment: Inhibition of human Top1 in human MCF7 cells assessed as decrease in supercoiled pBS(SK+) DNA isomer relaxation at 5 to 200 uM preincubated for 5 mins followed by pBS(SK+) DNA addition by agarose gel electrophoresis; format: cell-based
# [5] = target: T2, DNA topoisomerase 1 (Homo sapiens); experiment: Inhibition of wild type recombinant human Top1 expressed in baculovirus infected insect Sf9 cells assessed as stabilization of Top1-cleavage complexes at 50 to 200 uM incubated for 30 mins by agarose gel electrophoresis
# HCT-116 = experiment: Cytotoxicity against human HCT116 cells assessed as inhibition of cell viability after 72 hrs by MTT assay; format: functional, cell-based; conditions: HCT-116, 72 h
# [6] = target: T2, DNA topoisomerase 1 (Homo sapiens); experiment: Inhibition of wild type recombinant human Top1 expressed in baculovirus infected insect Sf9 cells assessed as decrease in supercoiled pBS(SK+) DNA isomer relaxation at 5 to 200 uM incubated simultaneously with enzyme and pBS(SK+) DNA for 30 mins by agarose gel electrophoresis
# Leishmania donovani = experiment: Inhibition of Leishmania donovani Top1 (large/ small subunits) expressed in Escherichia coli BL21 (DE3) pLysS cells assessed as decrease in supercoiled pBS(SK+) DNA isomer relaxation at 5 to 200 uM incubated simultaneously with enzyme and pBS(SK+) DNA for 30 mins by agarose gel electrophoresis
# HeLa = experiment: Cytotoxicity against human HeLa cells assessed as inhibition of cell viability after 72 hrs by MTT assay; format: functional, cell-based
Compound,EC50 (DNA topoisomerase 1) [µM],EC50 [1] [µM],also measured
COc1cc(/C=C2/NC(=O)NC2=O)cc(OC)c1OC,> 100,> 100,
Cn1cc(/C=C2/NC(=S)NC2=O)c2ccccc21,48.9,> 100,
O=C1NC(=S)N/C1=C/c1cc(Br)cs1,> 100,> 100,
COc1ccc(/C=C2/NC(=S)NC2=O)cc1C,> 100,> 100,
COc1ccc(/C=C2/NC(=S)NC2=O)cc1,> 100,> 100,
COc1ccc(/C=C2/NC(=O)NC2=O)cc1C,> 100,> 100,
COc1ccc(-c2ccc(/C=C3/NC(=S)NC3=O)s2)cn1,10.1,65.2,IC50 (MCF7): 11.4 µM; IC50 at 72 h [2]: > 50 µM; inhibition [3]: Active; inhibition [4]: Active; inhibition [5]: Active; IC50 (HCT-116): > 50 µM; inhibition [6]: Active; inhibition (Leishmania donovani): Active; IC50 (HeLa): 1.1 µM
O=C1NC(=O)/C(=C\c2cc(Br)cs2)N1,> 100,> 100,
COc1ccc(-c2csc(/C=C3/NC(=S)NC3=O)c2)cn1,30.3,63.1,
COc1ccc(-c2csc(/C=C3/NC(=O)NC3=O)c2)cn1,> 100,> 100,
COc1ccc(/C=C2/NC(=S)NC2=O)cc1OC,> 100,> 100,
Cc1ccc(/C=C2/NC(=S)NC2=O)cc1,> 100,> 100,
COc1ccc(/C=C2/NC(=O)NC2=O)cc1OC,> 100,> 100,
Cc1cc(C)cc(/C=C2/NC(=O)NC2=O)c1,> 100,> 100,
COc1cccc(/C=C2/NC(=S)NC2=O)c1,> 100,> 100,
COc1cc(/C=C2/NC(=S)NC2=O)cc(OC)c1OC,93.2,> 100,
Cc1ccc(/C=C2/NC(=O)NC2=O)cc1,> 100,> 100,
O=C1NC(=S)N/C1=C/c1ccc([N+](=O)[O-])cc1,> 100,> 100,
COc1ccc(-c2ccc(/C=C3/NC(=O)NC3=O)s2)cn1,> 100,> 100,
O=C1NC(=S)N/C1=C/c1ccc(-c2cccnc2)s1,27.7,54.8,
